According to patent publication US20260176320A1, “MODULATORS OF G-PROTEIN COUPLED RECEPTORS” (priority 2018, published 2026):
Like-named read-outs stand apart in the source and are kept apart here.

Columns and labels:
Format in all cases: cell-based
GLP-1R [1] = target: T1, GLP-1R (Homo sapiens, UniProt P43220); assay: PathHunter β-arrestin assay
Summary of the method: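 Cells (5,000/well) plated overnight, then exposed to a 22-point 2-fold agonist dilution series in medium with 0.2% BSA for 90 min at 37 °C, 5% CO2. PathHunter detection reagent added; after 3 h at room temperature in the dark, luminescence read.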

GLP-1R [2] = target: T1, GLP-1R; assay: HitHunter cAMP assay (GLP-1R); conditions: for Emax: read-out: (Emax) GLP-1R
Summary of the method: (§1)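 Suspension cells (10,000/well) in HBSS with 10 mM HEPES, 625 μM IBMX, 0.2% BSA exposed to 22-point 2-fold agonist series in duplicate for 30 min at room temperature. cAMP measured by antibody immunocompetition with overnight development, luminescence read-out.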

GIP-R = target: T2, GIP-R (Homo sapiens, UniProt P48546); assay: HitHunter cAMP assay (GIP-R); conditions: for Emax at 1 µM: read-out: (Emax) GIP-R at 1 μM, Table 3; for Emax: read-out: (Emax) GIP-R
T2 sequence (P48546 22-466): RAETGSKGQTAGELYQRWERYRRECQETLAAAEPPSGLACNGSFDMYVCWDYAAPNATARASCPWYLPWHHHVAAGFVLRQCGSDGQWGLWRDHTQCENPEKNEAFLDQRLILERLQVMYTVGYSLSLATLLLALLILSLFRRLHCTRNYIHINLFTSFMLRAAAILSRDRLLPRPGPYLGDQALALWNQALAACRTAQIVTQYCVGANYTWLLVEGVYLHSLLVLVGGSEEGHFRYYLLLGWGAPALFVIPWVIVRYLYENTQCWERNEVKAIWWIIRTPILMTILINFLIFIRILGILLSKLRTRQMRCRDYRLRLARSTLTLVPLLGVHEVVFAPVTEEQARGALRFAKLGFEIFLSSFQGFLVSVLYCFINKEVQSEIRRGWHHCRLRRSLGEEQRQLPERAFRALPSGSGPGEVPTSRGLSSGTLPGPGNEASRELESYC
Summary of the method: as §1

[3] = PathHunter β-arrestin assay, read-out: β-arrestin activity EC50
[4] = Table 3, cAMP, read-out: EC50 GLP-1R/nM
[5] = Table 3A, cAMP, read-out: EC50 GLP-1R/nM
[6] = Table 3, cAMP, read-out: EC50 GIP-R/nM
[7] = Table 3A, cAMP, read-out: EC50 GIP-R/nM

T1 sequence (P43220 24-463): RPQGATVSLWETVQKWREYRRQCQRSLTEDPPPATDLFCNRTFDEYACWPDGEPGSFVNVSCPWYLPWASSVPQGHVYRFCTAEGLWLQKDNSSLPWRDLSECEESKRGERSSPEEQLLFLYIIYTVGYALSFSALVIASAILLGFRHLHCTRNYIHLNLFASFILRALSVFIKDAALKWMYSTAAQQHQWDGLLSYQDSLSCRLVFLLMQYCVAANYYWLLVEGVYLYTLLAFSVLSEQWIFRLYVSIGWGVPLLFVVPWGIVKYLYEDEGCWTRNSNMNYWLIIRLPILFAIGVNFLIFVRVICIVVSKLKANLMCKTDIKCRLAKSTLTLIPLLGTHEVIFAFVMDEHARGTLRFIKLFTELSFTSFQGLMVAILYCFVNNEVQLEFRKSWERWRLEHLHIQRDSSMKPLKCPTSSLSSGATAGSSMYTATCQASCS

CC[C@H](C)[C@H](NC(=O)[C@H](CO)NC(=O)[C@H](Cc1ccc(O)cc1)NC(=O)[C@H](CC(=O)O)NC(=O)[C@H](CO)NC(=O)[C@@H](NC(=O)[C@H](Cc1ccccc1)NC(=O)[C@@H](NC(=O)CNC(=O)[C@H](CCC(=O)O)NC(=O)/C=C/C(=O)NCCN1C(=O)CSC1=O)[C@@H](C)O)[C@@H](C)O)C(=O)N[C@@H](Cc1ccc(O)cc1)C(=O)N[C@@H](CC(C)C)C(=O)N[C@@H](CC(=O)O)C(=O)N[C@@H](CCCCN)C(=O)N[C@@H](CCC(N)=O)C(=O)N[C@@H](C)C(=O)N[C@@H](C)C(=O)NC(C)(C)C(=O)N[C@@H](CCC(=O)O)C(=O)N[C@@H](Cc1ccccc1)C(=O)N[C@H](C(=O)N[C@@H](CC(N)=O)C(=O)N[C@@H](Cc1c[nH]c2ccccc12)C(=O)N[C@@H](CC(C)C)C(=O)N[C@@H](CC(C)C)C(=O)N[C@@H](C)C(=O)NCC(=O)NCC(=O)N1CCC[C@H]1C(=O)N[C@@H](CO)C(=O)N[C@@H](CO)C(=O)NCC(=O)N[C@@H](C)C(=O)N1CCC[C@H]1C(=O)N1CCC[C@H]1C(=O)N1CCC[C@H]1C(=O)N[C@@H](CO)C(=O)N[C@@H](CCCCN)C(N)=O)C(C)C [Compound 167]
EC50 (GLP-1R [1]; [3]): > 1000 nM
Emax (GLP-1R [2]; Table 3, cAMP): 94 to 99%
EC50 (GLP-1R [2]; [4]): 0.1 to 10 nM
Emax (GLP-1R [2]; Table 3A, cAMP): 94 to 99%
EC50 (GLP-1R [2]; [5]): 0.1 to 10 nM
EC50 (GIP-R; [6]): > 1000 nM
EC50 (GIP-R; [7]): > 1000 nM
Emax at 1 µM (GIP-R; cAMP): < 1%

CCCCCCCCCCCCCCCC(=O)N[C@@H](CCC(=O)NCCCC[C@H](NC(=O)[C@H](CO)NC(=O)[C@@H]1CCCN1C(=O)[C@@H]1CCCN1C(=O)[C@@H]1CCCN1C(=O)[C@H](C)NC(=O)CNC(=O)[C@H](CO)NC(=O)[C@H](CO)NC(=O)[C@@H]1CCCN1C(=O)CNC(=O)CNC(=O)[C@H](C)NC(=O)[C@H](CC(C)C)NC(=O)[C@H](CC(C)C)NC(=O)[C@H](Cc1c[nH]c2ccccc12)NC(=O)[C@H](CC(N)=O)NC(=O)[C@@H](NC(=O)[C@H](Cc1ccccc1)NC(=O)[C@H](CCC(=O)O)NC(=O)C(C)(C)NC(=O)[C@H](C)NC(=O)[C@H](C)NC(=O)[C@H](CCC(N)=O)NC(=O)[C@H](CCCCN)NC(=O)[C@H](CC(=O)O)NC(=O)[C@H](CC(C)C)NC(=O)[C@H](Cc1ccc(O)cc1)NC(=O)[C@@H](NC(=O)[C@H](CO)NC(=O)[C@H](Cc1ccc(O)cc1)NC(=O)[C@H](CC(=O)O)NC(=O)[C@H](CO)NC(=O)[C@@H](NC(=O)[C@H](Cc1ccccc1)NC(=O)[C@@H](NC(=O)CNC(=O)[C@H](CCC(=O)O)NC(=O)CCCCC(=O)NCCN1CCCCC1=O)[C@@H](C)O)[C@@H](C)O)[C@@H](C)CC)C(C)C)C(N)=O)C(=O)O [Compound 20]
EC50 (GLP-1R [1]): > 1000 nM
EC50 (GLP-1R [2]): 0.1 to 1 nM
Emax (GLP-1R [2]): 91%
EC50 (GLP-1R [2]; read-out: EC50 GLP-1R/nM, Table 3A, cAMP): 0.1 to 1 nM
EC50 (GIP-R; EC50 GIP-R/nM, Table 3, cAMP): 1 to 10 nM
EC50 (GIP-R; EC50 GIP-R/nM, Table 3A, cAMP): 10 to 100 nM
Emax (GIP-R): 22%

CCCCCCCCCCCCCCCC(=O)N[C@@H](CCC(=O)NCCCC[C@H](NC(=O)[C@H](CO)NC(=O)[C@@H]1CCCN1C(=O)[C@@H]1CCCN1C(=O)[C@@H]1CCCN1C(=O)[C@H](C)NC(=O)CNC(=O)[C@H](CO)NC(=O)[C@H](CO)NC(=O)[C@@H]1CCCN1C(=O)CNC(=O)CNC(=O)[C@H](C)NC(=O)[C@H](CC(C)C)NC(=O)[C@H](CC(C)C)NC(=O)[C@H](Cc1c[nH]c2ccccc12)NC(=O)[C@H](CC(N)=O)NC(=O)[C@@H](NC(=O)[C@H](Cc1ccccc1)NC(=O)[C@H](CCC(=O)O)NC(=O)C(C)(C)NC(=O)[C@H](C)NC(=O)[C@H](C)NC(=O)[C@H](CCC(N)=O)NC(=O)[C@H](CCCCN)NC(=O)[C@H](CC(=O)O)NC(=O)[C@H](CC(C)C)NC(=O)[C@H](Cc1ccc(O)cc1)NC(=O)[C@@H](NC(=O)[C@H](CO)NC(=O)[C@H](Cc1ccc(O)cc1)NC(=O)[C@H](CC(=O)O)NC(=O)[C@H](CO)NC(=O)[C@@H](NC(=O)[C@H](Cc1ccccc1)NC(=O)[C@@H](NC(=O)CNC(=O)[C@H](CCC(=O)O)NC(=O)C(C)(C)C(=O)NCCN1CCCCC1=O)[C@@H](C)O)[C@@H](C)O)[C@@H](C)CC)C(C)C)C(N)=O)C(=O)O [Compound 19]
EC50 (GLP-1R [1]; [3]): < 10 nM
Emax (GLP-1R [2]; Table 3, cAMP): 93%
EC50 (GLP-1R [2]; [4]): < 0.1 nM
Emax (GLP-1R [2]; Table 3A, cAMP): 93%
EC50 (GLP-1R [2]; [5]): < 0.1 nM
Emax (GIP-R; Table 3, cAMP): 50%
EC50 (GIP-R; [6]): 0.1 to 1 nM
Emax (GIP-R; Table 3A, cAMP): 50%
EC50 (GIP-R; [7]): 0.1 to 1 nM

CCCCCCCCCCCCCCCC(=O)N[C@@H](CCC(=O)NCCCC[C@H](NC(=O)[C@H](CO)NC(=O)[C@@H]1CCCN1C(=O)[C@@H]1CCCN1C(=O)[C@@H]1CCCN1C(=O)[C@H](C)NC(=O)CNC(=O)[C@H](CO)NC(=O)[C@H](CO)NC(=O)[C@@H]1CCCN1C(=O)CNC(=O)CNC(=O)[C@H](C)NC(=O)[C@H](CC(C)C)NC(=O)[C@H](CC(C)C)NC(=O)[C@H](Cc1c[nH]c2ccccc12)NC(=O)[C@H](CC(N)=O)NC(=O)[C@@H](NC(=O)[C@H](Cc1ccccc1)NC(=O)[C@H](CCC(=O)O)NC(=O)C(C)(C)NC(=O)[C@H](C)NC(=O)[C@H](C)NC(=O)[C@H](CCC(N)=O)NC(=O)[C@H](CCCCN)NC(=O)[C@H](CC(=O)O)NC(=O)[C@H](CC(C)C)NC(=O)[C@H](Cc1ccc(O)cc1)NC(=O)[C@@H](NC(=O)[C@H](CO)NC(=O)[C@H](Cc1ccc(O)cc1)NC(=O)[C@H](CC(=O)O)NC(=O)[C@H](CO)NC(=O)[C@@H](NC(=O)[C@H](Cc1ccccc1)NC(=O)[C@@H](NC(=O)CNC(=O)[C@H](CCC(=O)O)NC(=O)CSCC(=O)NCCN1C(=O)CC[C@H](C)C1=O)[C@@H](C)O)[C@@H](C)O)[C@@H](C)CC)C(C)C)C(N)=O)C(=O)O [Compound 92]
EC50 (GLP-1R [1]): > 1000 nM
EC50 (GLP-1R [2]; EC50 GLP-1R/nM, Table 3, cAMP): 1 to 10 nM
EC50 (GLP-1R [2]; EC50 GLP-1R/nM, Table 3A, cAMP): 1 to 10 nM
Emax (GLP-1R [2]; Table 3, cAMP): 94 to 104%
Emax (GLP-1R [2]; Table 3A, cAMP): 94 to 104%
EC50 (GIP-R; EC50 GIP-R/nM, Table 3, cAMP): 0.1 to 1 nM
EC50 (GIP-R; EC50 GIP-R/nM, Table 3A, cAMP): 0.1 to 1 nM
Emax (GIP-R; Table 3, cAMP): 85 to 88%
Emax (GIP-R; Table 3A, cAMP): 85 to 88%

CCCCCCCCCCCCCCCC(=O)N[C@@H](CCC(=O)NCCCC[C@H](NC(=O)[C@H](CO)NC(=O)[C@@H]1CCCN1C(=O)[C@@H]1CCCN1C(=O)[C@@H]1CCCN1C(=O)[C@H](C)NC(=O)CNC(=O)[C@H](CO)NC(=O)[C@H](CO)NC(=O)[C@@H]1CCCN1C(=O)CNC(=O)CNC(=O)[C@H](C)NC(=O)[C@H](CC(C)C)NC(=O)[C@H](CC(C)C)NC(=O)[C@H](Cc1c[nH]c2ccccc12)NC(=O)[C@H](CC(N)=O)NC(=O)[C@@H](NC(=O)[C@H](Cc1ccccc1)NC(=O)[C@H](CCC(=O)O)NC(=O)C(C)(C)NC(=O)[C@H](C)NC(=O)[C@H](C)NC(=O)[C@H](CCC(N)=O)NC(=O)[C@H](CCCCN)NC(=O)[C@H](CC(=O)O)NC(=O)[C@H](CC(C)C)NC(=O)[C@H](Cc1ccc(O)cc1)NC(=O)[C@@H](NC(=O)[C@H](CO)NC(=O)[C@H](Cc1ccc(O)cc1)NC(=O)[C@H](CC(=O)O)NC(=O)[C@H](CO)NC(=O)[C@@H](NC(=O)[C@H](Cc1ccccc1)NC(=O)[C@@H](NC(=O)CNC(=O)[C@H](CCC(=O)O)NC(=O)CSCC(=O)NCCn1[nH]c(=O)ccc1=O)[C@@H](C)O)[C@@H](C)O)[C@@H](C)CC)C(C)C)C(N)=O)C(=O)O [Compound 241]
EC50 (GLP-1R [1]): > 1000 nM
EC50 (GLP-1R [2]; EC50 GLP-1R/nM, Table 3A, cAMP): 1 to 10 nM
Emax (GLP-1R [2]; Table 3A, cAMP): 100%
EC50 (GIP-R; EC50 GIP-R/nM, Table 3A, cAMP): 10 to 100 nM
Emax (GIP-R; Table 3A, cAMP): 46%

CC[C@H](C)[C@H](NC(=O)[C@H](CO)NC(=O)[C@H](Cc1ccc(O)cc1)NC(=O)[C@H](CC(=O)O)NC(=O)[C@H](CO)NC(=O)[C@@H](NC(=O)[C@H](Cc1ccccc1)NC(=O)[C@@H](NC(=O)CNC(=O)[C@H](CCC(=O)O)NC(=O)CNC(=O)CCCCN1C(=O)CSC1=O)[C@@H](C)O)[C@@H](C)O)C(=O)N[C@@H](Cc1ccc(O)cc1)C(=O)N[C@@H](CC(C)C)C(=O)N[C@@H](CC(=O)O)C(=O)N[C@@H](CCCCN)C(=O)N[C@@H](CCC(N)=O)C(=O)N[C@@H](C)C(=O)N[C@@H](C)C(=O)NC(C)(C)C(=O)N[C@@H](CCC(=O)O)C(=O)N[C@@H](Cc1ccccc1)C(=O)N[C@H](C(=O)N[C@@H](CC(N)=O)C(=O)N[C@@H](Cc1c[nH]c2ccccc12)C(=O)N[C@@H](CC(C)C)C(=O)N[C@@H](CC(C)C)C(=O)N[C@@H](C)C(=O)NCC(=O)NCC(=O)N1CCC[C@H]1C(=O)N[C@@H](CO)C(=O)N[C@@H](CO)C(=O)NCC(=O)N[C@@H](C)C(=O)N1CCC[C@H]1C(=O)N1CCC[C@H]1C(=O)N1CCC[C@H]1C(=O)N[C@@H](CO)C(=O)N[C@@H](CCCCN)C(N)=O)C(C)C [Compound 171]
EC50 (GLP-1R [1]; [3]): > 1000 nM
Emax (GLP-1R [2]; Table 3, cAMP): 93 to 98%
EC50 (GLP-1R [2]; [4]): 1 to 10 nM
Emax (GLP-1R [2]; Table 3A, cAMP): 93 to 98%
EC50 (GLP-1R [2]; [5]): 1 to 10 nM
EC50 (GIP-R; [6]): > 1000 nM
EC50 (GIP-R; [7]): > 1000 nM
Emax at 1 µM (GIP-R; cAMP): 6.5%
